From the supplement of paper PMC10307832 come the findings set out here.

The structures appear in SMILES notation.

The first assay has as its system NCI-H2170. The experiment in a line: relative viability (nuclei count vs DMSO), 5 days (fraction); higher = more cells survive. The note with it: first compound 20 µM. The method, boiled down:
(§1)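 Nuclei were stained with Hoechst during a one-step fixation (final 0.05% Triton X-100, 1% formaldehyde, 1 ug/ml Hoechst) carried out 5 days after dosing, then counted on 4× images. The cells, lung cancer lines in 1536-well plates, had been dosed by pin tool the day after seeding with one drug alone or a fixed anchor-drug dose plus five library-drug doses (not always all listed) in √10 steps. Relative viability is the nuclei count in treated wells divided by that in vehicle wells, and each value is the median of duplicate plates.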
On to `COCC1(CO)C(=O)C2CCN1CC2` (stereo unspecified) [PRIMA-1MET] + Cc1nc(NC(=O)N2CCC[C@H]2C(N)=O)sc1-c1ccnc(C(C)(C)C(F)(F)F)c1 [Alpelisib] (partner 2 µM), for which the relative viability worked out at 0.733.

A further assay has as its system NCI-H2347. The assay is described as above. The conditions noted are these: first compound 0.2 µM. In short, it runs like this:
as §1
In turn, `COCC1(CO)C(=O)C2CCN1CC2` (stereo unspecified) [PRIMA-1MET] + CS(=O)(=O)N1CCN(Cc2cc3nc(-c4cccc5[nH]ncc45)nc(N4CCOCC4)c3s2)CC1 [Pictilisib] (partner 1 µM) had a relative viability of 0.416.

The compound `COCC1(CO)C(=O)C2CCN1CC2` (stereo unspecified) [PRIMA-1MET] + CS(=O)(=O)CCNCc1ccc(-c2ccc3ncnc(Nc4ccc(OCc5cccc(F)c5)c(Cl)c4)c3c2)o1 [Lapatinib] (partner 2 µM) returned a relative viability of 0.939.

`COCC1(CO)C(=O)C2CCN1CC2` (stereo unspecified) [PRIMA-1MET] + C[C@]1(O)C[C@@H](c2nc(-c3ccc4ccc(-c5ccccc5)nc4c3)c3c(N)nccn32)C1 [Linsitinib] (partner 1 µM) had a relative viability of 1.02.

`COCC1(CO)C(=O)C2CCN1CC2` (stereo unspecified) [PRIMA-1MET] + COc1cc2c(Oc3ccc(NC(=O)C4(C(=O)Nc5ccc(F)cc5)CC4)cc3F)ccnc2cc1OCCCN1CCOCC1 [Foretinib] (partner 0.25 µM) displayed a relative viability of 0.876.

As to `COCC1(CO)C(=O)C2CCN1CC2` (stereo unspecified) [PRIMA-1MET] + Cc1nc(NC(=O)N2CCC[C@H]2C(N)=O)sc1-c1ccnc(C(C)(C)C(F)(F)F)c1 [Alpelisib] (partner 2 µM), the relative viability was determined as 1.08.

The same assay, now with this note: first compound 0.6325 µM.
Compound `COCC1(CO)C(=O)C2CCN1CC2` (stereo unspecified) [PRIMA-1MET] + CS(=O)(=O)N1CCN(Cc2cc3nc(-c4cccc5[nH]ncc45)nc(N4CCOCC4)c3s2)CC1 [Pictilisib] (partner 1 µM) showed a relative viability of 0.741.

Turning to `COCC1(CO)C(=O)C2CCN1CC2` (stereo unspecified) [PRIMA-1MET] + CS(=O)(=O)CCNCc1ccc(-c2ccc3ncnc(Nc4ccc(OCc5cccc(F)c5)c(Cl)c4)c3c2)o1 [Lapatinib] (partner 2 µM), the relative viability was 0.856.

Compound `COCC1(CO)C(=O)C2CCN1CC2` (stereo unspecified) [PRIMA-1MET] + C[C@]1(O)C[C@@H](c2nc(-c3ccc4ccc(-c5ccccc5)nc4c3)c3c(N)nccn32)C1 [Linsitinib] (partner 1 µM) registered a relative viability of 0.847.

`COCC1(CO)C(=O)C2CCN1CC2` (stereo unspecified) [PRIMA-1MET] + COc1cc2c(Oc3ccc(NC(=O)C4(C(=O)Nc5ccc(F)cc5)CC4)cc3F)ccnc2cc1OCCCN1CCOCC1 [Foretinib] (partner 0.25 µM): the relative viability was found to be 0.724.

In turn, `COCC1(CO)C(=O)C2CCN1CC2` (stereo unspecified) [PRIMA-1MET] + Cc1nc(NC(=O)N2CCC[C@H]2C(N)=O)sc1-c1ccnc(C(C)(C)C(F)(F)F)c1 [Alpelisib] (partner 2 µM) showed a relative viability of 1.01.

The assay is the same for the next values; noted with them: first compound 2 µM.
In turn, `COCC1(CO)C(=O)C2CCN1CC2` (stereo unspecified) [PRIMA-1MET] + CS(=O)(=O)CCNCc1ccc(-c2ccc3ncnc(Nc4ccc(OCc5cccc(F)c5)c(Cl)c4)c3c2)o1 [Lapatinib] (partner 2 µM) showed a relative viability of 0.57.

For `COCC1(CO)C(=O)C2CCN1CC2` (stereo unspecified) [PRIMA-1MET] + C[C@]1(O)C[C@@H](c2nc(-c3ccc4ccc(-c5ccccc5)nc4c3)c3c(N)nccn32)C1 [Linsitinib] (partner 1 µM), the relative viability was 0.697.

`COCC1(CO)C(=O)C2CCN1CC2` (stereo unspecified) [PRIMA-1MET] + Cc1nc(NC(=O)N2CCC[C@H]2C(N)=O)sc1-c1ccnc(C(C)(C)C(F)(F)F)c1 [Alpelisib] (partner 2 µM) came in with a relative viability of 0.602.

The assay is the same for the next values; noted with them: first compound 6.325 µM.
For the compound `COCC1(CO)C(=O)C2CCN1CC2` (stereo unspecified) [PRIMA-1MET] + CS(=O)(=O)N1CCN(Cc2cc3nc(-c4cccc5[nH]ncc45)nc(N4CCOCC4)c3s2)CC1 [Pictilisib] (partner 1 µM), the relative viability worked out at 0.675.

`COCC1(CO)C(=O)C2CCN1CC2` (stereo unspecified) [PRIMA-1MET] + CS(=O)(=O)CCNCc1ccc(-c2ccc3ncnc(Nc4ccc(OCc5cccc(F)c5)c(Cl)c4)c3c2)o1 [Lapatinib] (partner 2 µM) returned a relative viability of 0.918.

Compound `COCC1(CO)C(=O)C2CCN1CC2` (stereo unspecified) [PRIMA-1MET] + C[C@]1(O)C[C@@H](c2nc(-c3ccc4ccc(-c5ccccc5)nc4c3)c3c(N)nccn32)C1 [Linsitinib] (partner 1 µM) gave a relative viability of 0.995.

`COCC1(CO)C(=O)C2CCN1CC2` (stereo unspecified) [PRIMA-1MET] + COc1cc2c(Oc3ccc(NC(=O)C4(C(=O)Nc5ccc(F)cc5)CC4)cc3F)ccnc2cc1OCCCN1CCOCC1 [Foretinib] (partner 0.25 µM) had a relative viability of 1.1.

On to `COCC1(CO)C(=O)C2CCN1CC2` (stereo unspecified) [PRIMA-1MET] + Cc1nc(NC(=O)N2CCC[C@H]2C(N)=O)sc1-c1ccnc(C(C)(C)C(F)(F)F)c1 [Alpelisib] (partner 2 µM), for which the relative viability came out at 1.08.

Staying with this assay, now noted: first compound 20 µM.
`COCC1(CO)C(=O)C2CCN1CC2` (stereo unspecified) [PRIMA-1MET] + CS(=O)(=O)N1CCN(Cc2cc3nc(-c4cccc5[nH]ncc45)nc(N4CCOCC4)c3s2)CC1 [Pictilisib] (partner 1 µM): the relative viability is 0.561.

`COCC1(CO)C(=O)C2CCN1CC2` (stereo unspecified) [PRIMA-1MET] + CS(=O)(=O)CCNCc1ccc(-c2ccc3ncnc(Nc4ccc(OCc5cccc(F)c5)c(Cl)c4)c3c2)o1 [Lapatinib] (partner 2 µM) came in with a relative viability of 1.06.

`COCC1(CO)C(=O)C2CCN1CC2` (stereo unspecified) [PRIMA-1MET] + C[C@]1(O)C[C@@H](c2nc(-c3ccc4ccc(-c5ccccc5)nc4c3)c3c(N)nccn32)C1 [Linsitinib] (partner 1 µM) showed a relative viability of 0.934.

Turning to `COCC1(CO)C(=O)C2CCN1CC2` (stereo unspecified) [PRIMA-1MET] + COc1cc2c(Oc3ccc(NC(=O)C4(C(=O)Nc5ccc(F)cc5)CC4)cc3F)ccnc2cc1OCCCN1CCOCC1 [Foretinib] (partner 0.25 µM), the relative viability worked out at 0.814.

Consider `COCC1(CO)C(=O)C2CCN1CC2` (stereo unspecified) [PRIMA-1MET] + Cc1nc(NC(=O)N2CCC[C@H]2C(N)=O)sc1-c1ccnc(C(C)(C)C(F)(F)F)c1 [Alpelisib] (partner 2 µM), for which the relative viability is 0.923.

The next assay deals with NCI-H460. The assay is described as above. The conditions noted are these: first compound 0.2 µM. The method, boiled down:
as §1
With `COCC1(CO)C(=O)C2CCN1CC2` (stereo unspecified) [PRIMA-1MET] + CS(=O)(=O)N1CCN(Cc2cc3nc(-c4cccc5[nH]ncc45)nc(N4CCOCC4)c3s2)CC1 [Pictilisib] (partner 1 µM), the relative viability was 0.31.

On to `COCC1(CO)C(=O)C2CCN1CC2` (stereo unspecified) [PRIMA-1MET] + CS(=O)(=O)CCNCc1ccc(-c2ccc3ncnc(Nc4ccc(OCc5cccc(F)c5)c(Cl)c4)c3c2)o1 [Lapatinib] (partner 2 µM), for which the relative viability turned out to be 0.993.

Compound `COCC1(CO)C(=O)C2CCN1CC2` (stereo unspecified) [PRIMA-1MET] + C[C@]1(O)C[C@@H](c2nc(-c3ccc4ccc(-c5ccccc5)nc4c3)c3c(N)nccn32)C1 [Linsitinib] (partner 1 µM) had a relative viability of 1.08.

For the compound `COCC1(CO)C(=O)C2CCN1CC2` (stereo unspecified) [PRIMA-1MET] + COc1cc2c(Oc3ccc(NC(=O)C4(C(=O)Nc5ccc(F)cc5)CC4)cc3F)ccnc2cc1OCCCN1CCOCC1 [Foretinib] (partner 0.25 µM), the relative viability turned out to be 1.08.

Compound `COCC1(CO)C(=O)C2CCN1CC2` (stereo unspecified) [PRIMA-1MET] + Cc1nc(NC(=O)N2CCC[C@H]2C(N)=O)sc1-c1ccnc(C(C)(C)C(F)(F)F)c1 [Alpelisib] (partner 2 µM) gave a relative viability of 0.571.

The assay is the same for the next values; noted with them: first compound 0.6325 µM.
Take `COCC1(CO)C(=O)C2CCN1CC2` (stereo unspecified) [PRIMA-1MET] + CS(=O)(=O)N1CCN(Cc2cc3nc(-c4cccc5[nH]ncc45)nc(N4CCOCC4)c3s2)CC1 [Pictilisib] (partner 1 µM): the relative viability stood at 0.359.

Regarding `COCC1(CO)C(=O)C2CCN1CC2` (stereo unspecified) [PRIMA-1MET] + CS(=O)(=O)CCNCc1ccc(-c2ccc3ncnc(Nc4ccc(OCc5cccc(F)c5)c(Cl)c4)c3c2)o1 [Lapatinib] (partner 2 µM), the relative viability was found to be 0.826.
